BindingDB's records for doi:10.1021/jm00083a001 (Ici Pharmaceuticals Group, 1992)
pIC50: −log10 of the molar value.

Assay: Inhibition of prolyl 4-hydroxylase

Compound	pIC50
O=C(NS(=O)(=O)c1ccc(Cl)s1)c1ccc(C(=O)O)nc1	5.62
O=C(NS(=O)(=O)c1cccc2cccnc12)c1ccc(C(=O)O)nc1	5.74
O=C(NS(=O)(=O)Cc1ccccc1)c1ccc(C(=O)O)nc1	5.52
O=C(NS(=O)(=O)c1cc(Br)c(Br)s1)c1ccc(C(=O)O)nc1	5.07
O=C(NS(=O)(=O)c1cccc2ccccc12)c1ccc(C(=O)O)nc1	5.36
CS(=O)(=O)NC(=O)c1ccc(C(=O)O)nc1	5.74
O=C(NS(=O)(=O)c1ccc(-c2cc(Cl)c3ccc(Cl)cc3n2)cc1)c1ccc(C(=O)O)nc1	5.18
